Experimental data published in PubChem BioAssay (NCI).
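Cells were grown in 96-well plates and exposed to each compound for 48 hours at five concentrations; endpoints were interpolated linearly between bracketing concentrations, or set to the highest concentration if not reached. TGI is the concentration that stops growth completely.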

What was measured:
Experiment in all cases: NCI-60 cell line screen, 48 h
[1] = system: 786-0 renal
[2] = system: A498 renal
[3] = system: A549 NSCLC
[4] = system: ACHN renal
[5] = system: CAKI-1 renal
[6] = system: CCRF-CEM leukemia
[7] = system: COLO 205 colon
[8] = system: DLD-1 colon
[9] = system: DMS 114 small cell lung
[10] = system: DMS 273 small cell lung
[11] = system: EKVX NSCLC
[12] = system: HCC-2998 colon
[13] = system: HCT-116 colon
[14] = system: HCT-15 colon
[15] = system: HL-60(TB) leukemia
[16] = system: HOP-62 NSCLC
[17] = system: HT29 colon
[18] = system: IGROV1 ovarian
[19] = system: K-562 leukemia
[20] = system: KM12 colon
[21] = system: KM20L2 colon
[22] = system: LOX IMVI melanoma
[23] = system: LXFL 529 NSCLC
[24] = system: M14 melanoma
[25] = system: MALME-3M melanoma
[26] = system: MOLT-4 leukemia
[27] = system: NCI-H226 lung
[28] = system: NCI-H23 lung
[29] = system: NCI-H460 lung
[30] = system: NCI-H522 lung
[31] = system: OVCAR-3 ovarian
[32] = system: OVCAR-4 ovarian
[33] = system: OVCAR-5 ovarian
[34] = system: OVCAR-8 ovarian
[35] = system: RPMI-8226 leukemia
[36] = system: SF-268 CNS
[37] = system: SF-295 CNS
[38] = system: SF-539 CNS
[39] = system: SK-MEL-2 melanoma
[40] = system: SK-MEL-28 melanoma
[41] = system: SK-MEL-5 melanoma
[42] = system: SK-OV-3 ovarian
[43] = system: SN12C renal
[44] = system: SNB-19 CNS
[45] = system: SNB-75 CNS
[46] = system: SW-620 colon
[47] = system: TK-10 renal
[48] = system: UACC-257 melanoma
[49] = system: UACC-62 melanoma
[50] = system: UO-31 renal

Measured: TGI

CC(C)N(C(=O)C12C3C4C1C1C2C3C41C(=O)O)C(C)C (stereo not given)
> 100 µM: [1] | [2] | [3] | [4] | [5] | [6] | [7] | [8] | [9] | [10] | [11] | [12] | [13] | [14] | [15] | [16] | [17] | [18] | [19] | [20] | [21] | [22] | [23] | [24] | [25] | [26] | [27] | [28] | [29] | [30] | [31] | [32] | [33] | [34] | [35] | [36] | [37] | [38] | [39] | [40] | [41] | [42] | [43] | [44] | [45] | [46] | [47] | [48] | [49] | [50]
